Results from US20250019772A1, “Method and System of Augmenting Cancer Therapy” (UNIVERSITY OF MIAMI, priority 2023, published 2025).

Legend:
[1] = tested on: CD11+ BMDC's; assay: Phagocytosis of irradiated MEFs treated with autophagy inhibitors by BMDC's (qPCR IFNβ1, Cxcl10); type: cell-based, mouse; conditions: BafA1 50 nM; 3-MA 2.5 mM
[2] = tested on: ISD (dsDNA); assay: Binding of CCL5 to DNA (Picogreen, EMSA); conditions: ISD 10 μg/mL
Description: SIEVES were isolated from irradiated (X-ray at 50 Gy for 3 days) WT, SKO, or CCL5 MEFs as well as B16-WT, B16-SKO or B16-CCL5KO cells by centrifugation. (A) Immunoblot analysis of centrifuged fractions using antibodies to STING, CD81, LC3, and Lamin A/C. (B) Size distribution evaluation of endosomal vesicles isolated from B16-WT. B16-SKO, and B16-CCL5 KO cells following irradiation with X-rays at 50 Gy. (C) Evaluation of number of endosomal vesicles in (B). (D) Immunoblotting analysis of endosomal/exosomal markers in endosomal vesicles in (B). (E) cGAMP ELISA analysis of WT DC. SKO DC, and CKO BMDC's treated with 30 μg of SIEVE's isolated from MEF WT, MEF SKO, MEF CKO or MEF CCL5 KO. (F) qPCR analysis of Cxcl10 in WT DC treated with SIEVE's from (E). […] (G) Tumor volumes were measured every other day for 2 weeks. […]
(B) B16-WT. […] DNA was purified with phenol-chloroform and CCL5 bound ISD was analyzed by qPCR analysis. (C) DNA in SIEVE's isolated from MEF-WT, SKO and CCL5 KO with or without X-ray at 50 Gy were measured by Nanodrop, Picogreen staining and visualized by agarose gel electrophoresis and dot blot analysis, according to an embodiment of the present invention; and
ISD90 was premixed with CCL5 and negative control molecules at different concentration in 100 μL and analyzed by a fluorimeter after staining with Picogreen. […]

[3] = tested on: DNase II; assay: Nuclease protection assay of Ccl5-DNA complex; type: biochemical; conditions: 1 unit DNase II, 37° C., 20 mins
[4] = tested on: WT macrophages (WTØ); assay: Phagocytosis of irradiated cells by WT macrophages (WTØ), Cxcl10 qPCR, with CCL5, CCL5 antibody or CCR inhibitors; type: cell-based, mouse; conditions: exogenously added recombinant CCL5 100 ng/mL 2 h, irradiated B16 cells 50 Gy
Procedure: (B) B16-WT or B16-SKO cells were irradiated using X-rays at 50 Gy for 3 days. 50 μL of the conditioned media from the cells was added to WTØ followed by adding the irradiated B16-WT and B16-SKO cells with the treated APC's for phagocytosis analysis. qPCR analysis was performed for Cxcl10 expression. (C) qPCR analysis of Cxcl10 in WTØ following the phagocytosis of irradiated MEF-WT cells in the presence of CCL5 antibody or IgG control (1 μg) at 100 ng/mL for 2 h prior to the phagocytosis. (D) MEF-WT cells were treated with a cocktail of 100 nM CCR inhibitors (Bx471, SB297006, AZD2098 and Maraviroc). The MEF-WT cells treated with the inhibitors (CCRi) were fed to WTØ for 6 h and Cxcl10 expression examined. (E) MEF WT, SKO or CCL5 KO were transfected with 3 μg/mL ISD for 6 h followed by measuring Ifnβ1, Cxcl10 or Ccl5 expression by qPCR analysis. (F) MEF WT, SKO or CCL5 KO were transfected with 3 μg/mL ISD for 6 h and then examined for STING activity by immunoblotting analysis. […] Immunofluorescence to detect STING translocation was monitored by confocal microscope, according to an embodiment of the present invention; […]
Macrophages were washed with 0.02% EDTA/PBS twice followed by incubation with 0.02% EDTA/PBS at 37C incubator for 10 mins. […] Percentage of phagocytosed cells were assessed by flow cytometry using a LSRII instrument (Becton Dickinson, USA).

Row | association of Ccl5 with DNA [2] | Molecule | immunogenicity of irradiated MEF cells (ability to activate APC's) [1] | protection against DNA degradation by DNaseII [3] | rescue of immunogenicity of Ccl5 KO or STING KO cells [4]
1 |  | Cn1cnc(N)c2ncnc1-2 [3-MA, 3-Methyladenine] | suppressed the immunogenicity |  | 
2 |  | CO/C1=C\C(C)=C\[C@@H](C)[C@@H](O)[C@@H](C)C/C(C)=C/C=C/[C@H](OC)[C@@H]([C@@H](C)[C@@H](O)[C@H](C)[C@@]2(O)C[C@@H](O)[C@H](C)[C@@H](C(C)C)O2)OC1=O [BafA1, bafilomycin A1] | suppressed the immunogenicity |  | 
3 | associated with | Ccl5: recombinant CCL5 protein, exogenously added chemokine |  | conferred protection against DNA degradation | did not appear to significantly rescue the immunogenicity
